In patent US20240189265A1, “COMPOSITIONS AND TECHNIQUES FOR VAGINAL INSERTION” (Daré Bioscience, Inc., priority 2021, published 2024):

Experiments:
[1] = Compatibility of Diclofenac Sodium in Gel Formulation 1; assay type: physicochemical; conditions: 2%, 3% gels, viscosity, pH, appearance
Description: Variation in pH was reported between prototypes but was expected due to the chemical nature of the API.

[2] = Solubility of drug substance in simulated vaginal fluid; assay type: physicochemical; conditions: fassgf or other biorelevant

SMILES: O=C(O)Cc1ccccc1Nc1c(Cl)cccc1Cl [Diclofenac Sodium]
- compatibility with the Gel Formulation 1 composition [1]: Compatible
- solubility [2]: ~0.016 mg/mL
